Numbers after ± are expanded uncertainties.
Conditions: Liquid, Closed cell (Static) method

Row | SMILES | vapor or sublimation pressure (283.15 K) [kPa] | vapor or sublimation pressure (293.15 K) [kPa] | vapor or sublimation pressure (303.15 K) [kPa] | vapor or sublimation pressure (313.15 K) [kPa] | vapor or sublimation pressure (323.15 K) [kPa]
1 | CC(C)C [2-methylpropane] | 222.2 ± 7 | 303.3 ± 7 | 406 ± 7 | 530.3 ± 7 | 684.4 ± 7.1
2 | C=C(F)C(F)(F)F [2,3,3,3-tetrafluoro-1-propene] | 436.5 ± 7 | 591 ± 7.1 | 780.5 ± 7.1 | 1015.6 ± 7.2 | 1300.7 ± 7.2

Source: the NIST ThermoML archive (doi:10.1016/j.fluid.2013.12.015)
